Measurements reported in patent US12037345B2, “Heterobicyclic compounds for inhibiting the activity of SHP2” (TAIHO PHARMACEUTICAL CO., LTD., priority 2018, dated 2024).
Counter-ions that a name gives are not always drawn. Like-named read-outs stand apart in the source and are kept apart here.

Experiments:
[1] = system: pERK (phospho-p44/42 MAPK Thr202/Tyr204) in HCC827 cells; test: Cellular pERK Inhibition Assay, Method B (PathScan phospho-p44/42 MAPK sandwich ELISA); assay type: cell-based; conditions: for IC50: Homo sapiens
Protocol: Cellular pERK Inhibition Assay
HCC827 cells (ATCC, Manassas, USA) were seeded into 96-well plates at a density of 1×10^5 cells/well in RPMI medium supplemented with 10% FBS and incubated 24h. Compounds were diluted first in DMSO and then into serum-free medium, before being added to cells in triplicate to give a final concentration of 0.1% DMSO. Plates were incubated at 37° C. for the indicated time in a humidified atmosphere of 5% CO2 in air.
Following compound treatment, medium was removed and cells were lysed by adding 50 μL of lysis buffer (Cell Signalling Technology, Beverly, USA) to each well. Plates were then incubated at room temperature for 25 minutes with shaking. pERK levels were measured in lysates using the PathScan(Registered Trademark) phospho-p44/42 MAPK (Thr202/Tyr204) sandwich ELISA (Cell Signalling Technology, Beverly, USA) as per kit instructions. Briefly, 50 μL of cell lysate was added to 50 μL of ELISA sample diluent in a 96-well ELISA plate and incubated overnight at 4° C. Following washing, 100 μL of detection antibody was added per well and the plates incubated for 1 hour at 37° C. Plates were washed again and incubated at 37° C. for 30 minutes with 100 μl of HRP-linked secondary antibody per well. After final washing, 100 μL per well of TMB substrate was added and plates incubated at 37° C. to develop colour. Colour development was stopped by the addition of 100 μL per well of stop solution. Plates were read at 450 nm on a SpectraMax Gemini reader (Molecular Devices, Uckfield, UK).
The average signal from blank wells (no cells added) was subtracted from the signals from each sample well. Levels of pERK were then expressed as “percent of control”, using DMSO treated samples as control. Dose response curves were generated using GraphPad Prism Version 6 (GraphPad Software, La Jolla, USA) and fitted using the four parameter logistic curve fit.

SHP2 = SHP2 (Homo sapiens (Human), UniProt Q06124); test: SHP2 Biochemical Assay (DiFMUP conversion, pIRS1-activated)
Outline: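 Rates of DiFMU formation were followed 30 min at ex 360/em 450 nm, with 50 μM DiFMUP, 10 pM SHP2 and pIRS1 peptide ([…]) after 30 min compound pre-incubation at pH 7.0 Bis-Tris propane. Four-parameter logistic IC50s in singlicate; repeat runs averaged.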

[2] = Table 19, head prints unit as "-M", read-out: pERK (IC50) Method B
[3] = Table 19, head prints unit as "-M"
[4] = Table 20, read-out: pERK (IC50, μM) Method B

IC50 [1, 2] [µM]	IC50 (SHP2; [3]) [nM]	IC50 (SHP2; Table 20) [nM]	Structure (SMILES)	IC50 [1, 4] [µM]	pERK Method B, % at given concentration ([1]; Table 20, at 10 uM) [% at 10 uM]
0.025	24	–	CCn1cc2c(Cl)c(-c3n[nH]c4nc(N5CCC6(CC5)CO[C@@H](C)[C@H]6N)n(C)c(=O)c34)ccc2n1 [Example 148, 6-[(3S,4S)-4-amino-3-methyl-2-oxa-8-azaspiro[4.5]decan-8-yl]-3-(4-chloro-2-ethyl-2H-indazol-5-yl)-5-methyl-1H,4H,5H-pyrazolo[3,4-d]pyrimidin-4-one hydrochloride salt]	–	–
–	–	36	CCn1cc2ccc(-c3c[nH]c4nc(N5CCC6(CC5)COC[C@H]6N)n(C)c(=O)c34)c(Cl)c2n1 [Example 182, 2-[(4S)-4-amino-2-oxa-8-azaspiro[4.5]decan-8-yl]-5-(7-chloro-2-ethyl-2H-indazol-6-yl)-3-methyl-3H,4H,7H-pyrrolo[2,3-d]pyrimidin-4-one hydrochloride]	2.2	–
–	–	67	CCn1cc2c(Cl)c(-c3c[nH]c4nc(N5CC6CNCC5C6)n(C)c(=O)c34)ccc2n1 (single isomer, unassigned) [Example 192, 5-(4-chloro-2-ethyl-2H-indazol-5-yl)-2-{3,6-diazabicyclo[3.2.1]octan-6-yl}-3-methyl-3H,4H,7H-pyrrolo[2,3-d]pyrimidin-4-one hydrochloride]	0.99	–
–	–	23	CCn1cc2c(F)c(-c3c[nH]c4nc(N5CCC6(CC5)COC[C@H]6N)n(C)c(=O)c34)ccc2n1 [Example 181, 2-[(4S)-4-amino-2-oxa-8-azaspiro[4.5]decan-8-yl]-5-(2-ethyl-4-fluoro-2H-indazol-5-yl)-3-methyl-3H,4H,7H-pyrrolo[2,3-d]pyrimidin-4-one hydrochloride]	0.21	–
0.11	17	–	Cn1cc2c(Cl)c(-c3n[nH]c4nc(N5CCC6(CCC[C@H]6N)CC5)n(C)c(=O)c34)ccc2n1 [Example 142, 6-[(1R)-1-amino-8-azaspiro[4.5]decan-8-yl]-3-(4-chloro-2-methyl-2H-indazol-5-yl)-5-methyl-1H,4H,5H-pyrazolo[3,4-d]pyrimidin-4-one]	–	–
–	–	16	C[C@@H]1OCC2(CCN(c3nc4[nH]cc(-c5cc(F)c6nn(C)cc6c5Cl)c4c(=O)n3C)CC2)[C@@H]1N [Example 194, 2-[(3S,4S)-4-amino-3-methyl-2-oxa-8-azaspiro[4.5]decan-8-yl]-5-(4-chloro-7-fluoro-2-methyl-2H-indazol-5-yl)-3-methyl-3H,4H,7H-pyrrolo[2,3-d]pyrimidin-4-one hydrochloride]	0.043	–
–	–	92	CCn1cc2c(Cl)c(-c3c[nH]c4nc(N5CC6CNC(C6)C5)n(C)c(=O)c34)ccc2n1 (single isomer, unassigned) [Example 191, 5-(4-chloro-2-ethyl-2H-indazol-5-yl)-2-{3,6-diazabicyclo[3.2.1]octan-3-yl}-3-methyl-3H,4H,7H-pyrrolo[2,3-d]pyrimidin-4-one hydrochloride]	–	60
0.097	20	–	Cn1cc2c(Cl)c(-c3n[nH]c4nc(N5CCC6(CC5)COC[C@H]6N)n(C)c(=O)c34)ccc2n1 [Example 139, 6-[(4S)-4-amino-2-oxa-8-azaspiro[4.5]decan-8-yl]-3-(4-chloro-2-methyl-2H-indazol-5-yl)-5-methyl-1H,4H,5H-pyrazolo[3,4-d]pyrimidin-4-one]	–	–
1.6	19	–	Cn1cc2c(Cl)c(-c3n[nH]c4nc(N5CCC6(CC5)C[C@H](O)C[C@H]6N)n(C)c(=O)c34)ccc2n1 [Example 138, 6-[(1R,3S)-1-amino-3-hydroxy-8-azaspiro[4.5]decan-8-yl]-3-(4-chloro-2-methyl-2H-indazol-5-yl)-5-methyl-1H,4H,5H-pyrazolo[3,4-d]pyrimidin-4-one]	–	–
0.21	19	–	Cn1cc2c(Cl)c(-c3n[nH]c4nc(N5CCC6(CC5)C[C@@H](F)C[C@H]6N)n(C)c(=O)c34)ccc2n1 [Example 144, 6-[(1R,3R)-1-amino-3-fluoro-8-azaspiro[4.5]decan-8-yl]-3-(4-chloro-2-methyl-2H-indazol-5-yl)-5-methyl-1H,4H,5H-pyrazolo[3,4-d]pyrimidin-4-one hydrochloride salt]	–	–
0.92	21	–	CCn1cc2c(Cl)c(-c3c[nH]c4nc(N5CCCC(N)CC5)n(C)c(=O)c34)ccc2n1 (racemic) [Example 154, rac-2-(4-aminoazepan-1-yl)-5-(4-chloro-2-ethyl-2H-indazol-5-yl)-3-methyl-3H,4H,7H-pyrrolo[2,3-d]pyrimidin-4-one hydrochloride]	–	–
–	–	34	CCn1cc2cc(-c3c[nH]c4nc(N5CCC6(CC5)COC[C@H]6N)n(C)c(=O)c34)ccc2n1 [Example 180, 2-[(4S)-4-amino-2-oxa-8-azaspiro[4.5]decan-8-yl]-5-(2-ethyl-2H-indazol-5-yl)-3-methyl-3H,4H,7H-pyrrolo[2,3-d]pyrimidin-4-one hydrochloride]	0.85	–

Structure (SMILES)	IC50 [1, 2] [µM]	IC50 (SHP2; [3]) [nM]	IC50 (SHP2; Table 20) [nM]	IC50 [1, 4] [µM]	pERK Method B, % at given concentration ([1]; Table 20, at 10 uM) [% at 10 uM]
Cn1cc2c(Cl)c(-c3c[nH]c4nc(N5[C@@H]6CCNC[C@H]5CC6)n(C)c(=O)c34)ccc2n1 (racemic) [Example 153, rac-5-(4-chloro-2-methyl-2H-indazol-5-yl)-2-[(1R,6S)-3,9-diazabicyclo[4.2.1]nonan-9-yl]-3-methyl-3H,4H,7H-pyrrolo[2,3-d]pyrimidin-4-one]	0.52	26	–	–	–
Cn1nc2ccc(-c3n[nH]c4nc(N5CC6COCC(C5)N6)n(C)c(=O)c34)c(Cl)c2c1Cl [Example 146, 3-(3,4-dichloro-2-methyl-2H-indazol-5-yl)-5-methyl-6-{3-oxa-7,9-diazabicyclo[3.3.1]nonan-7-yl}-1H,4H,5H-pyrazolo[3,4-d]pyrimidin-4-one hydrochloride salt]	3.8	57	–	–	–
CCn1cc2c(Cl)c(-c3c[nH]c4nc(N5[C@H]6CC[C@@H]5[C@@H](F)[C@@H](N)C6)n(C)c(=O)c34)ccc2n1 [Example 197, 2-[(1R,2S,3S,5S)-3-amino-2-fluoro-8-azabicyclo[3.2.1]octan-8-yl]-5-(4-chloro-2-ethyl-2H-indazol-5-yl)-3-methyl-3H,4H,7H-pyrrolo[2,3-d]pyrimidin-4-one hydrochloride]	–	–	12	0.032	–
Cn1cc2c(Cl)c(-c3c[nH]c4nc(N5[C@@H]6CC[C@@H](N)[C@H]5CC6)n(C)c(=O)c34)ccc2n1 (racemic) [Example 152, rac-2-[(1R,2R,5R)-2-amino-8-azabicyclo[3.2.1]octan-8-yl]-5-(4-chloro-2-methyl-2H-indazol-5-yl)-3-methyl-3H,4H,7H-pyrrolo[2,3-d]pyrimidin-4-one]	0.66	29	–	–	–
CN(C)c1ccc2ccc(-c3c[nH]c4nc(N5[C@H]6CC[C@@H]5[C@H](N)C6)n(C)c(=O)c34)c(Cl)c2n1 [Example 198, 2-[(1R,2R,4S)-2-amino-7-azabicyclo[2.2.1]heptan-7-yl]-5-[8-chloro-2-(dimethylamino)quinolin-7-yl]-3-methyl-3H,4H,7H-pyrrolo[2,3-d]pyrimidin-4-one hydrochloride]	–	–	13	0.066	–
CNc1ccc2ccc(-c3c[nH]c4nc(N5[C@H]6CC[C@@H]5[C@H](N)C6)n(C)c(=O)c34)c(Cl)c2n1 [Example 199, 2-[(1R,2R,4S)-2-amino-7-azabicyclo[2.2.1]heptan-7-yl]-5-[8-chloro-2-(methylamino)quinolin-7-yl]-3-methyl-3H,4H,7H-pyrrolo[2,3-d]pyrimidin-4-one hydrochloride]	–	–	14	0.11	–
Cn1cc2c(Cl)c(-c3c[nH]c4nc(N5[C@H]6CCNC[C@@H]5CC6)n(C)c(=O)c34)ccc2n1 [Example 188, 5-(4-chloro-2-methyl-2H-indazol-5-yl)-2-[(1S,6R)-3,9-diazabicyclo[4.2.1]nonan-9-yl]-3-methyl-3H,4H,7H-pyrrolo[2,3-d]pyrimidin-4-one hydrochloride]	–	–	41	0.56	–
Cn1cc2c(Cl)c(-c3c[nH]c4nc(N5[C@H]6CC[C@@H]5[C@](C)(N)C6)n(C)c(=O)c34)ccc2n1 [Example 195, 2-[(endo)-2-amino-2-methyl-7-azabicyclo[2.2.1]heptan-7-yl]-5-(4-chloro-2-methyl-2H-indazol-5-yl)-3-methyl-3H,4H,7H-pyrrolo[2,3-d]pyrimidin-4-one hydrochloride]	–	–	16	0.045	–
